Test results published in PMC4736448, “Optical Control of Insulin Secretion Using an Incretin Switch” (Angewandte Chemie (International Ed. in English), 2015).
Starred links: 1 amine or outer side, 2 acyl side, 3 side chain; linkers in the order of their positions; H or OH if unused. Non-standard residues stand in square brackets, D forms with d. Residues, ends and D or L forms follow the SMILES beside them. X1 = O=C(Cc1cccc(/N=N/c2cccc(CN[*:1])c2)c1)[*:2]; X2 = O=C(Cc1cccc(/N=N\c2cccc(CN[*:1])c2)c1)[*:2]

Experiments:
[1] = cis-trans photoisomerization by UV/Vis spectroscopy; type: physicochemical; conditions: UV 330 nm (trans→cis), blue 440 nm (cis→trans), listed as names the isomer
Excerpt: Switching kinetics in response to blue (λ=440 nm; cis→trans) and UV (λ=330 nm; trans→cis) light were robust and fast, with no evidence of degradation or bleaching (Figure 2 b; see Figure S2 and Table S2 in the Supporting Information).

MIN6 beta cells [2] = test: Apoptosis induced by glucolipotoxicity in MIN6 beta cells (cleaved caspase 3); type: cell-based; conditions: 500 nM, 24 h, 33 mM glucose + 0.5 mM palmitate, n=8 repeats
Procedure: MIN6 cells (a kind gift from Dr Jun-ichi Miyazaki, Osaka University) were cultured in DMEM supplemented with 15% FBS, 10 mM glutamine, 20 mM HEPES, 0.0005% β-mercaptoethanol 100 U/mL penicillin and 100 µg/mL […]
Apoptosis was assessed using a DeadEnd Fluorimetric
TUNEL System staining kit (Promega).[3] The apoptotic cell mass was calculated as a fraction area versus the total cell mass. To investigate the pro-survival […]
(§1) mixture (33 mM glucose + 0.5 mM palmitate) in the presence or absence of compound. Apoptosis was subsequently determined using specific fluorescent immunostaining and a rabbit polyclonal antibody against cleaved caspase 3 (Cell Signaling Technology # 9661; 1:400), before analysis as above. […]

mouse islets = test: Glucose-stimulated insulin secretion from isolated islets; type: cell-based; conditions: 150 nM, 8 mM glucose, n=12 animals; for augmentation of glucose-stimulated insulin secretion: mouse islets, 30 min, dark (trans) or 350 nm light (cis)
Procedure: (§2) All procedures involving primary tissue were regulated by the Home Office […]
(§3) Isolation of rodent islets
(§4) Islets were isolated from 8-12 week old female C57BL6 mice, as previously detailed,[2] and maintained in Roswell Park Memorial Institute (RPMI) medium supplemented with 10% foetal calf serum, 100 U/mL penicillin and 100 µg/mL […]
transilluminator to induce cis-isomerization, or kept in the dark to maintain the trans-isomer. In addition, for HTS Ca2+ assays, λ = 340 ± 10 nm or λ = […] was delivered between acquisitions using the platereader’s inbuilt […]
Batches of six to eight islets were incubated for 30 min in Krebs-HEPES-bicarbonate solution containing in mM: 130 NaCl, 3.6 KCl, 1.5 CaCl2, 0.5 MgSO4, 0.5 NaH2PO4, 2 NaHCO3, 10 HEPES and 0.1% (wt/vol) bovine serum albumin, pH 7.4.[2] Treatments were applied as indicated and photoswitching performed at λ = 340 ± 10 nm using a BMG Fluostar Optima platereader, as above. Insulin concentrations in the supernatant were measured using a Cisbio HTRF assay according to the low-range (sensitive) protocol.
(§5) Non-multifactorial comparisons were made using Student’s t-test. Multifactorial comparisons were made using either one- or two-way ANOVA, or the Kruskal-Wallis test, followed by pairwise comparisons using Bonferonni’s or Dunn’s tests.
(§6) Log-transformed concentration-response curves were fitted using non-linear regression and the Hill equation. All analyses were conducted using Graphpad Prism (Graphpad Software) and IgorPro, and results deemed significant at […]

[3] = test system: pancreatic beta cells within intact islets; test: Multicellular Ca2+ imaging in intact islets of Langerhans; type: cell-based, mouse; conditions: for effect on cytosolic Ca2+ levels / multicellular Ca2+ spiking in islets / Ca2+ rises / beta-cell activity at non-permissive (low) glucose: 150 nM; for effect on cytosolic Ca2+ levels / multicellular Ca2+ spiking in islets: permissive (>8 mM) glucose, blue 440 nm (trans), UV 350 nm (cis); for Ca2+ rises / beta-cell activity at non-permissive (low) glucose: G3, 3 mM glucose, n=5 recordings; for effect of GLP-1R blockade on trans-LirAzo-stimulated Ca2+ oscillations: Exendin 9-39 150 nM, n=9 recordings
Procedure: (§7) All procedures involving primary tissue were regulated by the Home Office according to the Animals (Scientific Procedures) Act 1986 of the United Kingdom […]
as §3, §4
Multicellular Ca2+ imaging was performed using fluo2 and a Nipkow spinning disk confocal microscope, as detailed.[3] Briefly, pulsed λ = 491 nm light was delivered through a 10/0.3 NA objective (EC Plan-Neofluar, Zeiss) using a solid-state laser (Cobalt), and emitted signals captured from λ = 500-550 nm using a Hammamatsu ImageEM EM-CCD camera. Photoswitching was performed using either a λ = 440 nm laser or the epifluorescent port of the microscope configured with a λ = 350 ± 20 nm band-pass filter. Throughout, HEPES-bicarbonate buffer was used, containing in mM: 120 NaCl, 4.8 KCl, 24 NaHCO3, 0.5 Na2HPO4, 5 HEPES, 2.5 CaCl2 and 1.2 MgCl2. Compounds and D-glucose were added as […]

MIN6 beta cells [4] = test: cAMP responses in MIN6 beta cells (Cisbio HTRF cAMP assay); type: cell-based; conditions: permissive (>8 mM) glucose, n=7 repeats
Procedure: as §7, §3, §4
Chinese Hamster Ovary (CHO) cells stably expressing the GLP-1R were cultured in Dulbecco's Modified Eagle's Medium (DMEM) supplemented with 10% FBS, 1 x non-essential amino acids, 25 mM HEPES, 100 U/mL penicillin and 100 µg/mL streptomycin. […]
(§8) (live) and 2.5 µM of propidium iodide (dead), and […]/emission detected at λ = 491/525 nm and λ = 561/620 nm, respectively. The area of dead:live cells was calculated as a ratio. Apoptosis was assessed using a DeadEnd Fluorimetric TUNEL System staining kit (Promega).[3] The apoptotic cell mass was calculated as a fraction area versus the total cell mass. […]
as §1
HitHunter No Wash PLUS assay. […] Absorbance/emission were detected at λ = 488/525 nm. […]

MIN6 beta cells [5] = type: cell-based; conditions: for signaling pathways engaged (Ca2+ rises with pathway antagonists): MIN6 beta cells, 150 nM, >8 mM glucose, antagonists of Epac2, L-type Ca2+ channels, KATP, IP3R, PKA, n=8 repeats
Procedure: as §2
MIN6 cells (a kind gift from Dr Jun-ichi Miyazaki, Osaka University) […]
HEPES, 0.0005% β-mercaptoethanol 100 U/mL penicillin and 100 µg/mL […]
Multicellular Ca2+ imaging was performed using fluo2 and a Nipkow spinning disk confocal microscope, as detailed.[3] […]
through a 10/0.3 NA objective (EC Plan-Neofluar, Zeiss) using a solid-state laser (Cobalt), and emitted signals captured from λ = 500-550 nm using a Hammamatsu ImageEM EM-CCD camera. Photoswitching was performed using either a λ = 440 nm laser or the epifluorescent port of the microscope configured with a λ = 350 ± 20 nm band-pass filter. Throughout, HEPES-bicarbonate buffer was used, containing in mM: 120 NaCl, 4.8 KCl, 24 NaHCO3, 0.5 Na2HPO4, 5 […]
HEPES, 2.5 CaCl2 and 1.2 MgCl2. […]
High-throughput (HTS) Ca2+ assays were performed using the DiscoverX
HitHunter No Wash PLUS assay. Treatments were automatically delivered at 37 °C using a BMG Labtech NOVOstar platereader and fluorescence intensity read […]
over 30-45 s. […] For all […]
transilluminator to induce cis-isomerization, or kept in the dark to maintain the […]
trans-isomer. […]
as §5, §6

islets = test: Cytotoxicity (dead:live and TUNEL) in islets; type: cell-based, mouse; conditions: 11 mM glucose-only; n=8-9 islets
Procedure: as §7, §3, §4
Cytotoxicity and apoptosis assays
as §8

| Compound | photoswitching kinetics τ1 [1] [s] | photoswitching kinetics τ2 [1] [min] | protection from apoptosis induced by glucolipotoxic insult (MIN6 beta cells [2]) | potentiation of glucose-stimulated insulin secretion (versus G8) (mouse islets) | augmentation of glucose-stimulated insulin secretion (mouse islets) | effect on cytosolic Ca2+ levels / multicellular Ca2+ spiking in islets [3] | cAMP concentration response in MIN6 beta cells, cis versus trans (MIN6 beta cells [4]) | Ca2+ fluxes versus control injection (high glucose alone) (MIN6 beta cells [5]; Figure S6) | signaling pathways engaged (Ca2+ rises with pathway antagonists) (MIN6 beta cells [5]) | protection from apoptosis induced by glucolipotoxic insult (MIN6 beta cells [2]; listed as trans isomer of LirAzo) | islet cell apoptosis under normal conditions (TUNEL) (islets) | Ca2+ rises / beta-cell activity at non-permissive (low) glucose [3] | Ca2+ rises / beta-cell activity at non-permissive (low) glucose ([3]; listed as trans-LirAzo) | effect of GLP-1R blockade on trans-LirAzo-stimulated Ca2+ oscillations [3] | effect of GLP-1R blockade on trans-LirAzo-stimulated Ca2+ oscillations ([3]; listed as Exendin 9-39) |
| --- | --- | --- | --- | --- | --- | --- | --- | --- | --- | --- | --- | --- | --- | --- | --- |
| CC[C@H](C)[C@H](NC(=O)[C@H](Cc1ccccc1)NC(=O)[C@H](CCC(=O)O)NC(=O)[C@H](CCCCN)NC(=O)[C@H](C)NC(=O)[C@H](C)NC(=O)Cc1cccc(/N=N\c2cccc(CNC(=O)[C@H](CCC(=O)O)NC(=O)[C@H](CC(C)C)NC(=O)[C@H](Cc3ccc(O)cc3)NC(=O)[C@H](CO)NC(=O)[C@H](CO)NC(=O)[C@@H](NC(=O)[C@H](CC(=O)O)NC(=O)[C@H](CO)NC(=O)[C@@H](NC(=O)[C@H](Cc3ccccc3)NC(=O)[C@@H](NC(=O)CNC(=O)[C@H](CCC(=O)O)NC(=O)[C@H](C)NC(=O)[C@@H](N)Cc3c[nH]cn3)[C@@H](C)O)[C@@H](C)O)C(C)C)c2)c1)C(=O)N[C@@H](C)C(=O)N[C@@H](Cc1c[nH]c2ccccc12)C(=O)N[C@@H](CC(C)C)C(=O)N[C@H](C(=O)N[C@@H](CCCNC(=N)N)C(=O)NCC(=O)N[C@@H](CCCNC(=N)N)C(=O)NCC(=O)O)C(C)C [cis‐LirAzo] (H-HAEGTFTSDVSSYLE[X2]AAKEFIAWLVRGRG-OH) | 51.0 ± 2.4 | 11.1 ± 4.0 | Lira and trans‐LirAzo are more protective than cis‐LirAzo | potentiate | ca. 2.5 fold | reduced | significantly left‐shifted, with a higher maximal response | only just above those observed following control injection | signaled via the cAMP binding partners Epac2 and PKA, as well as IP3 |  |  |  |  |  |  |
| CC[C@H](C)[C@H](NC(=O)[C@H](Cc1ccccc1)NC(=O)[C@H](CCC(=O)O)NC(=O)[C@H](CCCCN)NC(=O)[C@H](C)NC(=O)[C@H](C)NC(=O)Cc1cccc(/N=N/c2cccc(CNC(=O)[C@H](CCC(=O)O)NC(=O)[C@H](CC(C)C)NC(=O)[C@H](Cc3ccc(O)cc3)NC(=O)[C@H](CO)NC(=O)[C@H](CO)NC(=O)[C@@H](NC(=O)[C@H](CC(=O)O)NC(=O)[C@H](CO)NC(=O)[C@@H](NC(=O)[C@H](Cc3ccccc3)NC(=O)[C@@H](NC(=O)CNC(=O)[C@H](CCC(=O)O)NC(=O)[C@H](C)NC(=O)[C@@H](N)Cc3c[nH]cn3)[C@@H](C)O)[C@@H](C)O)C(C)C)c2)c1)C(=O)N[C@@H](C)C(=O)N[C@@H](Cc1c[nH]c2ccccc12)C(=O)N[C@@H](CC(C)C)C(=O)N[C@H](C(=O)N[C@@H](CCCNC(=N)N)C(=O)NCC(=O)N[C@@H](CCCNC(=N)N)C(=O)NCC(=O)O)C(C)C [trans‐LirAzo] (H-HAEGTFTSDVSSYLE[X1]AAKEFIAWLVRGRG-OH) | 32.3 ± 1.6 | 7.5 ± 3.4 | more protective than cis‐LirAzo |  | ca. 1.4 fold | induced increases in the baseline amplitude and frequency of multicellular Ca^2+ spiking |  |  | signaled via the cAMP binding partners Epac2 and PKA, as well as IP3 | significant protection | do not induce | unable to stimulate changes in beta‐cell activity | unable |  |  |
| exendin 9–39 [reference compound] |  |  |  |  |  |  |  |  |  |  |  |  |  | abolished | abolishes |
